The structures appear in SMILES notation. Where two headings read alike, the source gives them in different places.

Experiment [1] has as its system phospho-ERK. In words: Cellular phospho-ERK assay. The format is cell-based. Particulars: NCI-H358 cells, 2 hour incubation, ratio of p-Erk vs total Erk, read-out: IC50 (nM) pERK (Cell). The procedure, abridged:
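NCI-H358 cells seeded overnight, then exposed to compound dose-response titrations for 2 hours at 37° C. in RPMI. Lysates assayed by AlphaLISA SureFire Ultra multiplex for p-Erk and total Erk; ratio p-Erk/total Erk used as readout, IC50 from 4-parameter logistic fit.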

Experiment [2] addresses Biotinylated KRAS G12C protein (Homo sapiens (Human), UniProt P01116, C118S/C51S/C80L/G12C). Briefly: SOS-catalyzed nucleotide exchange assay (TR-FRET). The format is biochemical. To be noted: in vitro apparent potency; preincubation time of 60 minutes prior to addition of SOS. A digest of the protocol: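 Biotinylated KRAS G12C preloaded with Bodipy-GDP and Tb-streptavidin, then incubated with compound (10-point, 3-fold series) for 60 min at RT. Exchange started with SOS and GTP for 60 min. TR-FRET 520/495 ratio normalised to DMSO and saturating-inhibitor controls; four-parameter fit.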

Biotinylated KRAS G12C protein, sequence (P01116 other isoform, or with tags, fused parts or gaps, stated change not applied): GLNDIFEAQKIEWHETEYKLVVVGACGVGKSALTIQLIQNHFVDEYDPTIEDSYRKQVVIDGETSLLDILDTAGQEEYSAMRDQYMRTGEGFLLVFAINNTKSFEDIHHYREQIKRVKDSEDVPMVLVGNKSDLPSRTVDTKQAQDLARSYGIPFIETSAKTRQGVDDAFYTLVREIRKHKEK

In the case of `C=CC(=O)N1CCN(c2nc(=O)n3c4nc(c(F)cc24)-c2c(F)cccc2OCCCc2ccnc(C(C)C)c2-3)[C@@H](C)C1` (single isomer, unassigned) [Example 10a], the 50% inhibitory concentration (IC50) (as a rule, the point on the concentration scale where inhibition reaches its midpoint) came out at 6.7 nM in experiment [1] and 4.3 nM in experiment [2].

On to `C=CC(=O)N1C[C@H](C)N(c2nc(=O)n3c4nc(c(F)cc24)-c2cccc(F)c2OCCOc2ccnc(C(C)C)c2-3)C[C@H]1C` [Example 114, 2-[(2S,5R)-2,5-dimethyl-4-(prop-2-enoyl)piperazin-1-yl]-14,20-difluoro-6-(propan-2-yl)-11,12-dihydro-4H-1,18-(ethanediylidene)pyrido[4,3-e]pyrimido[1,6-g][1,4,7,9]benzodioxadiazacyclododecin-4-one], for which the 50% inhibitory concentration (IC50) was 112 nM in experiment [1] and 43 nM in experiment [2].

Take `C=CC(=O)N1C[C@H](C)N(c2nc(=O)n3c4nc(c(C)cc24)-c2c(F)ccc(F)c2OCCCc2ccnc(C(C)C)c2-3)C[C@H]1C` (single isomer, unassigned) [Example 120]: the 50% inhibitory concentration (IC50) in experiment [1] amounted to 11 nM; in experiment [2], 4.3 nM.

On to `C=CC(=O)N1C[C@H](C)N(c2nc(=O)n3c4nc(c(F)cc24)-c2c(ccc(F)c2F)OCCCc2ccnc(C(C)C)c2-3)C[C@H]1C` [Example 78, 2-[(2S,5R)-2,5-dimethyl-4-(prop-2-enoyl)piperazin-1-yl]-16,17,20-trifluoro-6-(propan-2-yl)-11,12-dihydro-4H,10H-1,18-ethenopyrido[4,3-e]pyrimido[1,6-g][1,7,9]benzoxadiazacyclododecin-4-one], for which the half-inhibitory concentration (IC50) was 18 nM in experiment [1] (Homo sapiens, NCI-H358, 2 h) and 2.4 nM in experiment [2].

As for `C=CC(=O)N1CC(C)N(c2nc(=O)n3c4nc(c(F)cc24)-c2c(F)cc(F)cc2OCC(F)(F)CCc2ccnc(C(C)C)c2-3)CC1C` [Example 56, (5aRa,18aRa)-2-[(2S,5R)-2,5-dimethyl-4-(prop-2-enoyl)piperazin-1-yl]-12,12,16,18,21-pentafluoro-6-(propan-2-yl)-10,11,12,13-tetrahydro-4H-1,19-(ethanediylidene)pyrido[4,3-f]pyrimido[1,6-h][1,8,10] benzoxadiazacyclotri-decin-4-one], the IC50 in experiment [1] (Homo sapiens, NCI-H358, 2 h) is 8 nM; in experiment [2] it was 1.1 nM.

With `C=CC(=O)N1CCN(c2nc(=O)n3c4nc(c(F)cc24)-c2c(F)cccc2OCCCc2ccnc(C(C)C)c2-3)[C@@H](CC)C1` [Example 98, 2-[(25)-2-ethyl-4-(prop-2-enoyl)piperazin-1-yl]-17,20-difluoro-6-(propan-2-yl)-11,12-dihydro-4H,10H-1,18-(ethanediylidene)pyrido[4,3-e]pyrimido[1,6-g][1,7,9] benzoxadiazacyclododecin-4-one], the concentration for half-maximal inhibition (IC50) in experiment [1] (Homo sapiens, NCI-H358, 2 h) came to 49 nM; in experiment [2] it was 11 nM.

With `C=CC(=O)N1CCN(c2nc(=O)n3c4nc(c(F)cc24)-c2c(F)cccc2C(=O)NCCCc2ccnc(C(C)C)c2-3)[C@H](C)C1` [Example 19b, 18,21-difluoro-2-[(2S)-2-methyl-4-(prop-2-enoyl)piperazin-1-yl]-6-(propan-2-yl)-10,11,12,13-tetrahydro-1,19-ethenopyrido[3,4-e]pyrimido[6,1-c][2,4,10]benzotriazacyclotridecine-4,14-dione], the half-inhibitory concentration (IC50) was greater than 30000 nM in experiment [1] and 4520 nM in experiment [2].

On to `C=CC(=O)N1C[C@H](C)N(c2nc(=O)n3c4nc(c(F)cc24)-c2c(F)cccc2OCCCCc2ccnc(C(C)C)c2-3)C[C@H]1C` [Example 8, 2-[(2S,5R)-2,5-dimethyl-4-(prop-2-enoyl)piperazin-1-yl]-18,21-difluoro-6-(propan-2-yl)-10,11,12,13-tetrahydro-4H-1,19-ethenopyrido[4,3-f]-pyrimido[1,6-h][1,8,10]ben-zoxadiazacyclotridecin-4-one], for which the IC50 in experiment [1] (Homo sapiens, NCI-H358, 2 h) was determined as 2.2 nM; in experiment [2], 3.5 nM.

With `C=C(C#N)C(=O)N1C[C@H](C)N(c2nc(=O)n3c4nc(c(Cl)cc24)-c2c(F)ccc(F)c2OCCCc2ccnc(C(C)C)c2-3)C[C@H]1C` [Example 121, 2-{(2R,5S)-4-[20-chloro-14,17-difluoro-4-oxo-6-(propan-2-yl)-11,12-dihydro-4H,10H-1,18-ethenopyrido[4,3-e]pyrimido[1,6-g][1,7,9]benzoxadiazacyclododecin-2-yl]-2,5-dimethylpiperazine-1-carbonyl}prop-2-enenitrile], the values for the IC50 in experiment [1] and in experiment [2] were greater than 30000 nM and 195 nM, respectively.

As for `C=CC(=O)N1CCN(c2nc(=O)n3c4nc(c(F)cc24)-c2c(F)cccc2OCCCOc2ccnc(C(C)C)c2-3)[C@@H](C)C1` [Example 1a, 18,21-difluoro-2-[(2S)-2-methyl-4-(prop-2-enoyl)piperazin-1-yl]-6-(propan-2-yl)-12,13-dihydro-4H,11H-1,19-ethenopyrido[4,3-f]pyrimido[1,6-h][1,5,8,10]benzodioxadiazacyclotridecin-4-one], the IC50 in experiment [1] stood at 21 nM; in experiment [2], 11 nM.

Regarding `C=CC(=O)N1C[C@H](C)N(c2nc(=O)n3c4nc(c(F)cc24)-c2c(ccc(F)c2F)OCC2(CCc4ccnc(C(C)C)c4-3)CC2)C[C@H]1C` [Example 62, 2′-[(2S,5R)-2,5-dimethyl-4-(prop-2-enoyl)piperazin-1-yl]-17′,18′,21′-trifluoro-6′-(propan-2-yl)-10′,11′-dihydro-4′H,13′H-spiro[cyclopropane-1,12′-[14]oxa [3,5,7,20]tetraaza[1,19] (ethanediylidene)pyrido[4,3-f]pyrimido[1,6-h][1,8,10]benzoxadiazacyclotri-decin]-4′-one], the IC50 was 54 nM in experiment [1] (Homo sapiens, NCI-H358, 2 h) and 3.5 nM in experiment [2].

As to `C=CC(=O)N1C[C@H](C)N(c2nc(=O)n3c4nc(c(F)cc24)-c2c(F)cccc2OCC(F)(F)CCc2ccnc(C(C)C)c2-3)C[C@H]1C` [Example 52, (5aRa,18aRa)-2-[(2S,5R)-2,5-dimethyl-4-(prop-2-enoyl)piperazin-1-yl]-12,12,18,21-tetrafluoro-6-(propan-2-yl)-10,11,12,13-tetrahydro-4H-1,19-(ethanediylidene)pyrido[4,3-f]pyrimido[1,6-h][1,8,10]benzoxadiazacyclotridecin-4-one], the IC50 in experiment [1] came out at 9.3 nM; in experiment [2] it was 1.8 nM.

As for `C=CC(=O)N1CCN(c2nc(=O)n3c4nc(c(F)cc24)-c2c(F)cccc2OCCCc2ccnc(C(C)C)c2-3)C[C@@H]1CC` [Example 103, 2-[(3S)-3-ethyl-4-(prop-2-enoyl)piperazin-1-yl]-17,20-difluoro-6-(propan-2-yl)-11,12-dihydro-4H,10H-1,18-ethenopyrido[4,3-e]pyrimido[1,6-g][1,7,9] benzoxadiazacyclododecin-4-one], the IC50 in experiment [1] (Homo sapiens, NCI-H358, 2 h) is 847 nM; in experiment [2] it was 107 nM.

In the case of `C=CC(=O)N1CCN(c2nc(=O)n3c4nc(c(F)cc24)-c2c(F)cccc2OCCCc2ccnc(C(C)C)c2-3)C(C(F)F)C1` (stereo not shown) [Example 99, 2-[2-(difluoromethyl)-4-(prop-2-enoyl)piperazin-1-yl]-17,20-difluoro-6-(propan-2-yl)-11,12-dihydro-4H,10H-1,18-ethenopyrido[4,3-e]pyrimido[1,6-g][1,7,9]benzoxadiazacyclododecin-4-one], the half-maximal inhibitory concentration (IC50) in experiment [1] (Homo sapiens, NCI-H358, 2 h) is 22 nM; in experiment [2] it was 12 nM.

For the origin of these results see patent publication US20240043448A1, “Small Molecule Inhibitors of KRAS G12C Mutant” (Merck Sharp & Dohme LLC, priority 2019, published 2024).
